# Like-named read-outs stand apart in the source and are kept apart here.
# Legend:
# LOX IMVI = assay: NCI 60 antitumor screening (single dose / five doses); format: cell-based; settings: Homo sapiens
# K-562 = assay: as above; format: cell-based; settings: Homo sapiens, K562
# MDA-MB-435 = assay: as above; format: cell-based; settings: Homo sapiens; MDA-MB-435 (melanoma), single dose 10 μM; read-out: Growth inhibition percentage (GI %)
# HCT-116 = assay: as above; format: cell-based; settings: Homo sapiens
# 786-0 = assay: as above; format: cell-based; settings: Homo sapiens
# T-47D = assay: as above; format: cell-based; settings: Homo sapiens, T47D
# UO-31 = assay: as above; format: cell-based; settings: Homo sapiens
# HOP-92 = assay: as above; format: cell-based; settings: Homo sapiens
# MOLT-4 = assay: as above; format: cell-based; settings: Homo sapiens
# ACHN = assay: as above; format: cell-based; settings: Homo sapiens
# SNB-75 = assay: as above; format: cell-based; settings: Homo sapiens
# HCT-15 = assay: as above; format: cell-based; settings: Homo sapiens
# SF-539 = assay: as above; format: cell-based; settings: Homo sapiens
# SN 12C = assay: as above; format: cell-based; settings: Homo sapiens, SN12C; SN 12C (renal cancer), single dose 10 μM; read-out: Growth inhibition percentage (GI %)
# CCRF-CEM = assay: as above; format: cell-based; settings: Homo sapiens
# SR = assay: as above; format: cell-based; settings: Homo sapiens
# HT29 = assay: as above; format: cell-based, human; settings: for GI50: read-out: GI50
# RPMI-8226 = assay: as above; format: cell-based; settings: Homo sapiens
# HL-60(TB) = assay: as above; format: cell-based; settings: Homo sapiens
# UACC-257 = assay: as above; format: cell-based; settings: Homo sapiens; UACC-257 (melanoma), single dose 10 μM; read-out: Growth inhibition percentage (GI %)
# UACC-62 = assay: as above; format: cell-based; settings: Homo sapiens; UACC-62 (melanoma), single dose 10 μM; read-out: Growth inhibition percentage (GI %)
# NCI/ADR-RES = assay: as above; format: cell-based; settings: Homo sapiens
# BT-549 = assay: as above; format: cell-based; settings: Homo sapiens
# MALME-3M = assay: as above; format: cell-based; settings: Homo sapiens
# [1] = test system: 60 human subpanel cancer cell lines; assay: NCI 60 antitumor screening, mean over the panel (single dose); format: cell-based; settings: mean over 60 cancer cell lines, single dose 10 μM
# Description: (§1) Initially, the anticancer effects of target compounds have been assessed at a single (10 μM) dose. The obtained data have been reported as mean-graph of the percent growth (G%) of the treated cancer cells. Percentage growth inhibition (GI%) is calculated (100 − G%) and pronounced in Table 1. […] Target compounds in series (III) with manipulated linkers disclosed lower potency. Superiorly, eight s-triazine derivatives from the three series (6a, 6c, 6d, 7a, 7g, 7i, 7l, and 8b) have shown potent broad-spectrum anticancer activity against most the examined cell lines, whereas most of the remaining triazine derivatives, 20 derivatives, have exerted selective anti-proliferative actions towards certain cancer cell lines (Supplementary).
# (§2) The antitumor screening was performed for 60 human cancer cell lines under the protocol of NCI (www.dtp.nci.nih.gov), the Drug Evaluation Branch, Bethesda, MD. All submitted compounds were nominated based on the degree of structural diversity and computer modelling techniques for evaluation of their anticancer activity. The screening process for antineoplastic activity passes through two successive levels, starting with the assessment of target compounds at a single dose of 10 μM against 60 cancer cell lines on nine types of human tumours. These experiments were done on a triplicate following. The output from the single‐dose screening was covered as a mean graph, and then, analysed by the COMPARE program. Finally, the compounds which disclosed subpanel cancer cell growth (G %) equal to or less than 10% in at least eight cancer cell lines get to pass the assessment against the 60 cell lines at five doses (0.01–100 μM). By using GraphPad Prism version 9.0 (Graphpad Software Inc., La Jolla, CA), GI50, TGI, as well as LC50 dose‐response parameters were computed and presented for each compound (Supplementary information)[55–57].
# TK-10 = assay: NCI 60 antitumor screening (single dose); format: cell-based; settings: Homo sapiens; TK-10 (renal cancer), single dose 10 μM; read-out: Growth inhibition percentage (GI %)
# Description: as §1, §2
# HS 578T = assay: NCI 60 antitumor screening (single dose); format: cell-based; settings: Homo sapiens; HS 578T (breast cancer), single dose 10 μM; read-out: Growth inhibition percentage (GI %)
# Description: as §1, §2
# M14 = assay: NCI 60 antitumor screening (single dose); format: cell-based; settings: Homo sapiens; M14 (melanoma), single dose 10 μM; read-out: Growth inhibition percentage (GI %)
# Description: as §1, §2
# MDA-MB-231/ATCC = assay: NCI 60 antitumor screening (single dose / five doses); format: cell-based; settings: Homo sapiens
compound,measurement,setting,value
"Brc1cccc(/C=N/Nc2nc(N/N=C/c3cccc(Br)c3)nc(N3CCOCC3)n2)c1 [compound 6c, 2,4-Bis[(E)-2-[(3-bromophenyl)methylidene]hydrazin-1-yl]-6-(morpholin-4-yl)-1,3,5-triazine]",inhibition at 10 µM,"LOX IMVI; LOX IMVI (melanoma), single dose 10 μM, read-out: Growth inhibition percentage (GI %)",94.8%
same,GI50,"LOX IMVI; LOX IMVI, five doses (0.01–100 μM), read-out: GI50",2.66 µM
same,inhibition at 10 µM,"K-562; K-562 (leukaemia), single dose 10 μM, read-out: Growth inhibition percentage (GI %)",85.5%
same,GI50,"K-562; K-562, five doses (0.01–100 μM), read-out: GI50",0.33 µM
same,inhibition at 10 µM,MDA-MB-435,66.6%
same,inhibition at 10 µM,"HCT-116; HCT-116 (colon cancer), single dose 10 μM, read-out: Growth inhibition percentage (GI %)",78.8%
same,GI50,"HCT-116; HCT-116, five doses (0.01–100 μM), read-out: GI50",0.78 µM
same,inhibition at 10 µM,"786-0; 786-0, 786-0 (renal cancer), single dose 10 μM, read-out: Growth inhibition percentage (GI %)",75.5%
same,GI50,"786-0; 786-0, five doses (0.01–100 μM), read-out: GI50",0.53 µM
same,inhibition at 10 µM,"T-47D; T-47D (breast cancer), single dose 10 μM, read-out: Growth inhibition percentage (GI %)",43.5%
same,GI50,"T-47D; T-47D, five doses (0.01–100 μM), read-out: GI50",3.94 µM
same,inhibition at 10 µM,"UO-31; UO-31 (renal cancer), single dose 10 μM, read-out: Growth inhibition percentage (GI %)",74.5%
same,GI50,"UO-31; UO-31, five doses (0.01–100 μM), read-out: GI50",1.01 µM
same,inhibition at 10 µM,"HOP-92; HOP-92 (non-small cell lung cancer), single dose 10 μM, read-out: Growth inhibition percentage (GI %)",36.2%
same,GI50,"HOP-92; HOP-92, five doses (0.01–100 μM), read-out: GI50",1.24 µM
same,inhibition at 10 µM,"MOLT-4; MOLT-4 (leukaemia), single dose 10 μM, read-out: Growth inhibition percentage (GI %)",89.8%
same,GI50,"MOLT-4; MOLT-4, five doses (0.01–100 μM), read-out: GI50",0.68 µM
same,inhibition at 10 µM,"ACHN; ACHN (renal cancer), single dose 10 μM, read-out: Growth inhibition percentage (GI %)",73.7%
same,GI50,"ACHN; ACHN, five doses (0.01–100 μM), read-out: GI50",2.21 µM
same,inhibition at 10 µM,"SNB-75; SNB-75 (CNS cancer), single dose 10 μM, read-out: Growth inhibition percentage (GI %)",-7.5%
same,GI50,"SNB-75; SNB-75, five doses (0.01–100 μM), read-out: GI50",4.54 µM
same,inhibition at 10 µM,"HCT-15; HCT-15 (colon cancer), single dose 10 μM, read-out: Growth inhibition percentage (GI %)",109%
same,GI50,"HCT-15; HCT-15, five doses (0.01–100 μM), read-out: GI50",0.42 µM
same,inhibition at 10 µM,"SF-539; SF-539 (CNS cancer), single dose 10 μM, read-out: Growth inhibition percentage (GI %)",43.6%
same,GI50,"SF-539; SF-539, five doses (0.01–100 μM), read-out: GI50",3.83 µM
same,inhibition at 10 µM,SN 12C,55.8%
same,inhibition at 10 µM,"CCRF-CEM; CCRF-CEM (leukaemia), single dose 10 μM, read-out: Growth inhibition percentage (GI %)",79%
same,GI50,"CCRF-CEM; CCRF-CEM, five doses (0.01–100 μM), read-out: GI50",0.57 µM
same,inhibition at 10 µM,"SR; SR (leukaemia), single dose 10 μM, read-out: Growth inhibition percentage (GI %)",92.1%
same,GI50,"SR; SR, five doses (0.01–100 μM), read-out: GI50",0.16 µM
same,GI50,"HT29; HT29, five doses (0.01–100 μM)",0.61 µM
same,GI50,"HT29; Homo sapiens, HT-29, HT29, five doses (0.01–100 μM)",0.6 µM
same,inhibition at 10 µM,"HT29; Homo sapiens, HT-29, HT29 (colon cancer), single dose 10 μM, read-out: Growth inhibition percentage (GI %)",93.4%
same,inhibition at 10 µM,"RPMI-8226; RPMI-8226 (leukaemia), single dose 10 μM, read-out: Growth inhibition percentage (GI %)",65.8%
same,GI50,"RPMI-8226; RPMI-8226, five doses (0.01–100 μM), read-out: GI50",1.68 µM
same,inhibition at 10 µM,"HL-60(TB); HL-60(TB) (leukaemia), single dose 10 μM, read-out: Growth inhibition percentage (GI %)",110%
same,GI50,"HL-60(TB); HL-60(TB), five doses (0.01–100 μM), read-out: GI50",0.15 µM
same,inhibition at 10 µM,UACC-257,64.1%
same,inhibition at 10 µM,UACC-62,44%
same,inhibition at 10 µM,"NCI/ADR-RES; NCI/ADR-RES (ovarian cancer), single dose 10 μM, read-out: Growth inhibition percentage (GI %)",58.2%
same,GI50,"NCI/ADR-RES; NCI/ADR-RES, five doses (0.01–100 μM), read-out: GI50",3.25 µM
same,inhibition at 10 µM,"BT-549; BT-549 (breast cancer), single dose 10 μM, read-out: Growth inhibition percentage (GI %)",47.3%
same,GI50,"BT-549; BT-549, five doses (0.01–100 μM), read-out: GI50",3.54 µM
same,inhibition at 10 µM,"MALME-3M; MALME-3M (melanoma), single dose 10 μM, read-out: Growth inhibition percentage (GI %)",154%
same,GI50,"MALME-3M; MALME-3M, five doses (0.01–100 μM), read-out: GI50",1.88 µM
same,Mean GI %,[1],66%
same,inhibition at 10 µM,TK-10,33.2%
same,inhibition at 10 µM,HS 578T,33.8%
same,inhibition at 10 µM,M14,68.3%
same,GI50,"MDA-MB-231/ATCC; MDA-MB-231/ ATCC, five doses (0.01–100 μM), read-out: GI50",3.97 µM
same,inhibition at 10 µM,"MDA-MB-231/ATCC; MDA-MB-231/ATCC (breast cancer), single dose 10 μM, read-out: Growth inhibition percentage (GI %)",33.9%
